From patent publication US20230175032A1, “EFFICIENT SYNTHESIS OF OMEGA-GLYCOSIDES AND ALKYL GLYCOSIDES” (AMPHISTAR, priority 2020, published 2023)

System: S. bombicola Δcyp52M1Δfao1 strain
Assay: shake flask cultivation fed with primary alcohols, viability as colony forming units
Format: cell-based, Starmerella bombicola
Details: alcohol added after 48 h of cultivation; in contrast to all other fed substrates (FIG. 8A)
Experimental: Production experiments using S. bombicola were performed using the production medium described by Lang et al., (2000). For shake flask experiments, 5 mL tube cultures were set up 24 h (30° C.), before transferring to shake flasks (4% inoculation). Production experiments were executed with feeding of fatty alcohols: oleyl alcohol, stearyl alcohol, lauryl alcohol, myristyl alcohol or cetyl alcohol which were added after 48 h of cultivation. The Δcyp52M1Δfao1 strain was also assessed without addition of the hydrophobic alcohol. For every production experiment, cultivation was stopped when glucose was depleted from the medium. […]
Optical density (OD) of cultures was measured at 600 nm using the Jasco V 630 Bio spectrophotometer (Jasco Europe) of 1 mL samples diluted with physiological solution (9 g/L NaCl). The viability of yeast cells in cultivation experiments was assessed by determining colony forming units (CFUs) which were expressed as the average logarithm of CFUs per culture volume as log(CFU/mL) (Saerens, Saey, et al., 2011). Alternatively, Cell Dry Weight (CDW) was determined by centrifuging 1 mL fermentation samples at 14000 rpm for 5 min in tared Eppendorf tubes, and subsequently washing the cell pellets twice with 1 mL physiological solution. […] The CDW (g/L) was calculated after subtraction of the empty weight of the Eppendorf tube.

For `CCCCCCCCCCCCO` [lauryl alcohol], the CFUs was “significant drop”.
